Data as given in patent US20190328869A1, “IMMUNOTHERAPEUTIC PRODUCT AND MDSC MODULATOR COMBINATION THERAPY” (Transgene SA, priority 2016, published 2019).

Experiments:
[1] = system: HBsAg (AAV2/8-HBV); experiment: Serum HBsAg level by ELISA in HBV-persistent mice; type: in vivo, C57BL/6J mice; settings: monotherapy; sildenafil 5, 20 or 80 mg/kg/day D31-59; AdTG18201 D36, 43, 50; up to day 104
Method: Graph A illustrates the median level of HBsAg determined in the serum of groups of 10 mice (groups a to h) treated with sildenafil at 5 mg/kg/day (group b), at 20 mg/kg/day (group c), or at 80 mg/kg/day (group d) alone, or with AdTG18201 (group e) alone or with a combination of AdTG18201 and sildenafil (at 5, 20, or 80 mg/kg/day, groups f, g and h, respectively). The control group a is untreated. The Y-axis indicates the median HBsAg level (ng/mL) for each group and the X-axis the time (number of days post-AAV2/8-HBV injection). Graph B illustrates the median level of HBV DNA determined in the serum of the same groups of mice by PCR. The Y-axis indicates the median HBV DNA level (copies/mL) for each group of animals and the X-axis the time (number of days post-AAV2/8-HBV injection). […]
(§1) The HBV persistent mice used in the study were described by Dion et al. (2013, J Virol, 87(10):5554-63). […] This allows the analysis of HBV-specific viral parameters (HBsAg, HBeAg, HBcAg and viremia) as well as immunological read-outs (ICS, ELISpot or humoral immune responses). […]
HBsAg levels in mouse serum were assessed using a commercial ELISA kit (Monolisa HBsAg Ultra, Bio-Rad, France) according to the manufacturer's protocol, except that a standard curve was established, to render the test quantitative. […]

[2] = system: HBV-Core-specific and HBV-Polymerase-specific T cells producing IFNγ; experiment: IFNγ-ELISpot, HBV-specific T cell responses (Full pool Core, VSA, N13F) in HBV-persistent mice; type: in vivo, C57BL/6J mice; settings: splenocytes, day 76; cutoff 50 spots/10^6 cells; sildenafil 20 mg/kg/day D31-59 or D48-76
Method: The capacity of splenocytes to produce IFNγ after different in vitro stimulations was measured by an IFNγ-ELISpot assay at day 76 post AAV2/8-HBV injection. HBV-specific responses were assessed using the HBV-Core peptides (A, Full pool Core), -polymerase specific peptide VSA (B) or N13F (C). Results are shown as the number of spots per 10^6 splenocytes. Each dot represents an individual mouse and thick line represents mean values for each group (+/−SEM). The horizontal gray line represents the technical cutoff value (50 spots/10^6 cells) above which values are considered as positive T cell responses. For groups with a positive T cell response, incidence of mice per group is indicated on the graph.
The capacity of splenocytes to produce IFNγ after different in vitro stimulations was measured by an IFNγ-ELISpot assay at day 76 post AAV2/8-HBV injection. HBV-specific responses were assessed using the HBV-Core peptides (Full pool Core), -polymerase specific peptide VSA or N13F. Shown are mean values of responder mice (>50 spots/10^6 cells) (mean, SEM). […]
as §1

## CCCc1nn(C)c2c(=O)nc(-c3cc(S(=O)(=O)N4CCN(C)CC4)ccc3OCC)[nH]c12 [sildenafil, 1-[[3-(4,7-dihydro-1-methyl-7-oxo-3-propyl-1H-pyrazolo[4,3-d]pyrimidin-5-yl)-4-ethoxyphenyl]sulfonyl]-4-methylpiperazine]
[1]
  HBsAg median level, course: no significant HBsAg decrease
[2]
  HBV-specific IFNg producing T responses (Full pool core, VSA, N13F): did not show any IFNg producing T responses
